One data set deals with Nf1+/− mice. Briefly: Spatial learning of Nf1+/− mice in the Morris water maze. Type of data set: in vivo. On the procedure: 1 week after handling, mice were trained with two consecutive trials per day for 8-9 days 30 minutes after i.p. injection of 8581 or vehicle. In each trial, mice were given 60 s to find the platform. After each trial, mice were put on the platform for 15 s. On the day of probe trial (Day 3, Day 5, Day 7, and Day 9) 60 s of probe trial was performed after training. […] Two different measures of spatial learning (% search in quadrant (FIG. 16) and average proximity to the target platform (FIG. 17)) show similarly, that active pharmaceutical compounds used in present invention rescue spatial learning deficits of Nf1+/− mice (CO/veh (n=10), Nf1/veh (n=9), CO/8581 (n=10), and Nf1/8581 (n=11).
Effects of active pharmaceutical compounds used in present invention on the performance of Nf1+/− mice were tested under conditions in which the spatial learning of the mutants was indistinguishable from controls (less extinction due to lower number of probe trials). Mean percentage of time spent in each quadrant during a probe trial in plotted in FIG. 18. Average proximity to the target quadrant is plotted in FIG. 19. […] On probe trial 1 and 2 (days 5 and 7), all groups searched selectively in the target quadrant (p<0.01), and there were no differences between groups.

Data set [1] deals with Nf1+/− mice and control mice (B16;129F1). Briefly: Rotarod, accelerating speeds, Nf1+/− and control mice. Type of data set: in vivo. The conditions noted are these: Nf1+/− mutant or control mice, 1 mg/kg i.p. On the procedure:
Control mice (B16;129F1) and Nf1+/− mice were treated with vehicle or with 8581 (n=10 for each of the 4 groups). 30 minutes after i.p. injection of 8581 (1 mg/kg) or vehicle, mice were tested with a rotarod protocol using accelerating speeds (4-40 rpm, maximal duration 300 s) for four trials with 30 min intertrial interval. FIG. 22 visualizes performance of control mice in the Rotarod and FIG. 23 illustrates the performance of Nf1+/− mice in the Rotarod.
(In general: In the rotarod test animals must keep their balance on a rotating rod.)

The test system of the next data set is Control mice (B16;129F1). The data set can be described thus: Contextual fear conditioning. Type of data set: in vivo. The method, then: Control mice (B16;129F1) were trained with a contextual fear-conditioning protocol using either one trial per day for one day (FIG. 20) or two consecutive days (FIG. 21). On the training day, 30 minutes after i.p. injection of 8581 or vehicle, mice were placed in training chamber. A foot shock (1 s, 0.4 mA) was delivered 40 s after placement. Conditioned response (percentage freezing time of the mice) was recorded 24 h after training by using automated procedures. Average freezing levels during the first 30 s of each training day and 24 hr after the last training trial were plotted.

Data set [2] relates to hippocampus of TS and CO mice. Briefly: Hippocampal neurogenesis, granule cell density and GAD+ boutons after chronic treatment. Type of data set: in vivo. The text has this:
Alterations in hippocampal morphology such as reductions in granule cell density and hippocampal neurogenesis have also been implicated in the learning deficits shown by Ts65Dn mice. Spatial learning is known to depend on the functional integrity of the hippocampus, a structure that plays a key role in information encoding and retrieving in the CNS. […] Also, neuronal survival of the cells that have undergone maturation was also normalized in TS mice, as shown by the increase in DAPI+ cells found in TS mice after chronic 8581 administration (p=0.026; FIG. 14).

Another data set concerns Ts65Dn and control mice. Briefly: Open field. As to conditions: mice of either genotype; for horizontal or vertical activity in open field: 20 mg/kg p.o. chronic; for anxiogenic effect (activity in the center of the open field): chronic administration. Type of data set: in vivo. On the procedure:
For mice studies, active pharmaceutical compounds of present invention were formulated in chocolate-milk (Puleva, Barcelona, Spain). Active pharmaceutical compounds of present invention or vehicle were administered p.o. at a dose of 20 mg/kg for six weeks. Their administration was prolonged during the 30 days of the behavioral assessment.
Exploratory behavior and anxiety were assessed using a square-shaped open field (55 cm×55 cm, surrounded by a 25-cm-tall fence), divided into 25 equal squares. The animals were placed in the center of the field, and the number of vertical (rearing) activities and horizontal crossings (from square to square, subdivided into center vs. peripheral crossings) were scored in a single 5-min trial.

Data set [3] can be described thus: 8581 concentration in serum after i.p. injection. The conditions noted are these: ip; for concentration at 0.5 h: 0.5 h after i.p. injection; for concentration at 3 h: 3 h after i.p. injection; for concentration at 7 h: 7 h after i.p. injection; for concentration at 24 h: 24 h after i.p. injection. Type of data set: in vivo, mice. On the procedure: Table 5. 8581 concentration in serum (ng/ml) of Nf1+/− and control mice 0.5, 3, 7, and 24 hours after i.p. injection

Where [4] appears, read: TS mice, chronic administration.
Setting [5] is: B16;129F1, mouse, 0.1 mg/kg, control mice.
Where [6] appears, read: B16;129F1, mouse, 1 mg/kg, control mice.

The values below come from patent US8835425B2, “Use of selective GABA A α5 negative allosteric modulators for the treatment of central nervous system conditions” (Hoffmann-La Roche Inc., priority 2010, dated 2014).

Molecules are shown by their SMILES.

In the case of `FC(F)c1ncn2c1Cn1ncnc1-c1cc(Br)ccc1-2` [Compound 8581, 3-Bromo-10-difluoromethyl-9H-imidazo[1,5-a][1,2,4]triazolo[1,5-d][1,4]benzodiazepine], in the data set with Nf1+/− mice (1 mg/kg), the “performance of Nf1+/− mice under conditions that occlude their behavioral deficits” value is listed as “does not affect the performance”. The “spatial learning deficits of Nf1+/− mice” value in the data set with Nf1+/− mice (Nf1+/− mice, 1 mg/kg i.p. 30 minutes before training, probe trials) is “rescued the spatial learning deficits”. Also, in data set [1], the performance in rotarod entry is “did not affect the performance”. In the data set on Control mice (B16;129F1) (control mice, 1 mg/kg i.p.), the “contextual conditioning, training for two consecutive days” value is given as “significant increase in contextual conditioning”. Also, in the data set on Control mice (B16;129F1) (control mice, 3 mg/kg i.p., one training day), the “freezing at 24 hr after training” value is given as “significantly enhanced freezing”. Moreover, in the data set with Control mice (B16;129F1) (control mice, 0.3, 1.0 and 3.0 mg/kg), the “contextual fear conditioning dose response curve” value is “dose-dependent increase in contextual fear conditioning”. Further, in data set [2] (CO mice, chronic treatment), the “number of GABAergic synapses (GAD+) in CO mice” value is recorded as “non-significant tendency to increase”. Further, in data set [2] (setting [4]), the “density of proliferating (Ki67+) cells in hippocampus” value is reported as “completely restored the density of proliferating cells” and the “neuronal survival (DAPI+ cells, granular cell layer)” value was “normalized”. The “number of GAD positive boutons in hippocampus” value in data set [2] (TS mice, chronic treatment) is recorded as “decreased dramatically”. For the same compound, in the data set with Ts65Dn and control mice, the “horizontal or vertical activity in open field” value is “did not significantly affect” and the “anxiogenic effect (activity in the center of the open field)” value is given as “did not produce an anxiogenic effect”. In data set [3] (setting [5]), the concentration at 0.5 h came out at 9.45 ± 3.05 ng/mL, the concentration at 3 h was less than 0.5 ng/mL, the concentration at 7 h is less than 0.5 ng/mL and the concentration at 24 h was less than 0.5 ng/mL. In data set [3] (setting [6]), this compound came in with a concentration at 0.5 h of 271 ± 1 ng/mL, a concentration at 3 h of 11.9 ± 2.51 ng/mL, a concentration at 7 h of less than 0.5 ng/mL and a concentration at 24 h of less than 0.5 ng/mL. In data set [3] (mouse, 0.1 mg/kg, Nf1+/− mice), this compound registered a concentration at 0.5 h of 11 ± 1.73 ng/mL, a concentration at 3 h of less than 0.5 ng/mL, a concentration at 7 h of less than 0.5 ng/mL and a concentration at 24 h of less than 0.5 ng/mL. In data set [3] (mouse, 1 mg/kg, Nf1+/− mice), this compound gave a concentration at 0.5 h of 192 ± 35 ng/mL, a concentration at 3 h of 8.95 ± 0.5 ng/mL, a concentration at 7 h of less than 0.5 ng/mL and a concentration at 24 h of less than 0.5 ng/mL.
With `Cc1onc(-c2ccc(F)cc2)c1COc1ccc(C(=O)N2CCS(=O)(=O)CC2)cn1` [Compound R1, (1,1-Dioxo-1,6-thiomorpholin-4-yl)-{6-[3-(4-fluoro-phenyl)-5-methyl-isoxazol-4-ylmethoxy]-pyridin-3-yl}-methanone], in the data set with Ts65Dn and control mice, the “horizontal or vertical activity in open field” value is recorded as “did not significantly affect” and the “anxiogenic effect (activity in the center of the open field)” value was “did not produce an anxiogenic effect”.
